Values after ≈ are worked out from the molar mass of the structure shown. Active and inactive are the calls of the source. The calls are words filed in the database; no cut-off is given here.
How the values were obtained:
Escherichia coli K-12 = experiment: Binding affinity to Escherichia coli K12 KAS 3 expressed in Escherichia coli BL21 by STD-NMR spectroscopy
[1] = target: T1, Beta-ketoacyl-[acyl-carrier-protein] synthase III (Escherichia coli K-12, UniProt P0A6R0); experiment: Binding affinity to Escherichia coli K12 KAS 3 expressed in Escherichia coli BL21 by fluorescence quenching analysis
T1 sequence (P0A6R0 whole entry): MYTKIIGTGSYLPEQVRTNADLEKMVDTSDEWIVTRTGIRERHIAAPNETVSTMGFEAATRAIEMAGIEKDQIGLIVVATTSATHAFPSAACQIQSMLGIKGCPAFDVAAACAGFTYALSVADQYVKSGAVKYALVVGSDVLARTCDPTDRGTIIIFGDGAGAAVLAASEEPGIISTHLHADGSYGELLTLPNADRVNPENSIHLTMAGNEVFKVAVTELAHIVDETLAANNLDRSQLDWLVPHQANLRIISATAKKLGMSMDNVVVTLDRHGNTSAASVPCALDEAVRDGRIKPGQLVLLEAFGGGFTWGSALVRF

Escherichia coli = experiment: Antimicrobial activity against Escherichia coli KCTC 1682 after 20 hrs by twofold serial broth dilution method; type: functional; settings: KCTC 1682, 20 h
Klebsiella pneumoniae = experiment: Antimicrobial activity against Klebsiella pneumoniae KCTC 2242 after 20 hrs by twofold serial broth dilution method; type: functional; settings: KCTC 2242, 20 h
Staphylococcus aureus [2] = experiment: Antimicrobial activity against Staphylococcus aureus KCTC 1621 after 20 hrs by twofold serial broth dilution method; type: functional; settings: KCTC 1621, 20 h
Enterococcus faecalis = experiment: Antimicrobial activity against Enterococcus faecalis KCTC 2011 after 20 hrs by twofold serial broth dilution method; type: functional; settings: KCTC 2011, 20 h
Staphylococcus aureus [3] = experiment: Antimicrobial activity against methicillin-resistant Staphylococcus aureus CCARM 3114 after 20 hrs by twofold serial broth dilution method; type: functional; settings: CCARM 3114, 20 h

Row | Structure (SMILES) | Activity (Escherichia coli K-12) | Kd [1] | MIC (Escherichia coli) | MIC (Klebsiella pneumoniae) | MIC (Staphylococcus aureus [2]) | MIC (Enterococcus faecalis) | MIC (Staphylococcus aureus [3])
1 | Cn1ncc2c(Nc3ccccc3)nc(NCCCO)nc21 | Active | 141 µM | – | – | – | – | –
2 | C=C/C(C)=C/[C@@]1(C)SC(=O)C(C)=C1O [THIOLACTOMYCIN] | Active | 121 µM | 128 µg/mL (≈ 609 µM) | 256 µg/mL (≈ 1220 µM) | 256 µg/mL (≈ 1220 µM) | 256 µg/mL (≈ 1220 µM) | 128 µg/mL (≈ 609 µM)
3 | C/C(=N\Nc1nc(C)cs1)c1cccc(O)c1 | Active | > 1000 µM | > 1020 µg/mL | > 1020 µg/mL | 256 µg/mL (≈ 1040 µM) | 256 µg/mL (≈ 1040 µM) | 256 µg/mL (≈ 1040 µM)
4 | Cc1cc(C)nc(NS(=O)(=O)c2ccc(NC(=O)c3sc4ccccc4c3Cl)cc2)n1 | inactive | – | – | – | – | – | –
5 | COc1ccc2c(c1OC)C(=O)OC2C(C)C(=O)c1ccc(O)c(O)c1 (stereo unspecified) | Active | 1.22 µM | > 1020 µg/mL | > 1020 µg/mL | > 1020 µg/mL | > 1020 µg/mL | > 1020 µg/mL
6 | COc1ccc(NC(=O)CC(CC(=O)O)c2ccccc2)cc1 (stereo unspecified) | inactive | – | – | – | – | – | –
7 | Oc1ccc(/C=N/C2CCCCC2)c(O)c1 | Active | 0.02 µM | 128 µg/mL (≈ 584 µM) | 256 µg/mL (≈ 1170 µM) | 256 µg/mL (≈ 1170 µM) | 256 µg/mL (≈ 1170 µM) | 128 µg/mL (≈ 584 µM)
8 | O=C(O)c1cc(NC(=O)c2ccccc2[N+](=O)[O-])ccc1O | Active | > 1000 µM | – | – | – | – | –
9 | CC1(O)N(CCC(N)=O)C(=O)OC12CCCCC2 (stereo unspecified) | inactive | – | – | – | – | – | –

Second part, led by results:

Row | Activity (Escherichia coli K-12) | Structure (SMILES) | Kd [1] | MIC (Escherichia coli) | MIC (Klebsiella pneumoniae) | MIC (Staphylococcus aureus [2]) | MIC (Enterococcus faecalis) | MIC (Staphylococcus aureus [3])
10 | Active | C=CCSC1Nn2c(nnc(C)c2=O)S1 (stereo unspecified) | > 1000 µM | – | – | – | – | –
11 | inactive | CCCc1cc(=O)oc2cc(OC(=O)c3ccccc3Cl)ccc12 | – | – | – | – | – | –
12 | inactive | COc1ccc2c(c1)CCC/C2=N/Nc1nc(C(=O)NN)cs1 | – | – | – | – | – | –
13 | inactive | C=CCn1c(SCC(=O)Nc2ccc(S(N)(=O)=O)cc2)nnc1-c1ccc(Cl)cc1 | – | – | – | – | – | –
14 | inactive | NS(=O)(=O)c1cccc(NC(=O)Nc2cccc(S(N)(=O)=O)c2)c1 | – | – | – | – | – | –
15 | inactive | Cc1c(C(=O)O)cc(C(C)(C)C)n1CCSCc1c(F)cccc1Cl | – | – | – | – | – | –
16 | Active | CC(C)(CC(=O)O)CC(=O)NCCN1CCNC1=O | > 1000 µM | – | – | – | – | –
17 | Active | CC1CN(c2ccc(O)c(C(=O)O)c2)C(=S)NC1=O (stereo unspecified) | > 1000 µM | – | – | – | – | –

Reference: ChEMBL document CHEMBL1152734, “Novel E. coli beta-ketoacyl-acyl carrier protein synthase III inhibitors as targeted antibiotics” (Bioorg Med Chem, 2009)
